Experimental findings from US11730751B2, “Treating and preventing motor neuron diseases using nicotinamide riboside” (Elysium Health, Inc., priority 2017, dated 2023) are described below.

Common to all, as to format: in vivo
The subject of experiment [1] is transgenic SOD1 G93A mice. In words: Survival time of SOD1 G93A mice (Kaplan-Meier). The conditions noted are these: in words, oral 185 mg NR and/or 30 mg PT or R per Kg per day, FIG. 1-2. An excerpt:
(§1) 1. B6.Cg-Tg(SOD1*G93A)1Gur/J (https://www.jax.org/strain/004435)
(§2) Mice hemizygous for this SOD1-G93A (also called G93A-SOD1) transgene were viable and fertile, with transgenic expression of a G93A mutant form of human SOD1. This founder line (often referred to as G1H) was reported to have high transgene copy number. […] Motor neuron degeneration has been associated with function and/or degeneration of astrocytes, the major glial cell type of the nervous system. […] Female hemizygotes were poor breeders, and rarely produced more than one litter before the onset of disease. […] The pattern of gene expression in SOD1G93A activated microglia represented a unique ALS-specific signature. These SOD1-G93A (also called G93A-SOD1) transgenic mice were useful in studying neuromuscular disorders, including Amyotrophic Lateral Sclerosis.
(§3) Nicotinamide riboside, pterostilbene, and resveratrol were administered orally: 185 mg of nicotinamide riboside and/or 30 mg of pterostilbene or resveratrol per Kg per day were administered to the mice.

In experiment [2] the test system is transgenic SOD1 G93A mice. Nature of the experiment: Motor behavior and performance tests in SOD1 mice (FIG. 3-9). The conditions noted are these: in words; for motor functions of SOD1 mice: FIG. 3-9, benefits only in the last weeks of the experiment.
From the text: as §1, §2, §3
This score was based on the scale of Weydt et al. (Neuroreport 14: 1051-1054, 2003). […] When the animals reached a score of “4”, the access to food and water was facilitated by placing food pellets on the cage floor to all transgenic mice. Reaching a score of “5”, the animals were euthanized for ethical reasons. […] Changes over time in the different groups were monitored weekly from week 8 (P50) to week 20 (P140).
This score was based on the SHIRPA tail scale, procedure developed by Rogers et al. (Mamm. Genome 8: 711-713, 1997) in the MRC, United Kingdom. […] Changes over time in the different groups were monitored weekly.
Functions of the test included evaluating balance, grip strength and motor coordination of the subjects; especially in testing the effect of experimental drugs. For this test (Rota Rod, Harvard Apparatus, Holliston, Mass.), each animal was given three trials and the maximum period (seconds) that it could remain on a rotating axle (3.5 cm diameter; speed of rotation: 15 rpm) without falling was measured. Each mouse was given up to three attempts for an arbitrary limit of 1200 seconds and the longest period was recorded. Changes over time in the different groups were monitored weekly.
Motor function and deficit in rodent models of CNS disorders were evaluated. […] Each mouse was given up to three attempts for a maximum of 180 seconds and the longest period was recorded. Changes over time in the different groups were monitored weekly.
For this locomotor rating test, a flat rolling band (Treadmill, Harvard Apparatus) was used and set at an angle of 5°. […] Each mouse was given two trials and the maximum distance run and the number of electrical stimuli received during the test (not exceeding 3 seconds) were recorded. […]

Experiment [3] relates to transgenic SOD1 G93A mice. Nature of the experiment: Electrophysiological measurements (CMAP, gastrocnemius muscle after sciatic nerve stimulation) in SOD1 mice. The conditions noted are these: in words, FIG. 9. Here is the method: Nicotinamide riboside, pterostilbene, and resveratrol were administered orally: 185 mg of nicotinamide riboside and/or 30 mg of pterostilbene or resveratrol per Kg per day were administered to the mice. Changes over time in evoked Compound Motor Action Potential (CMAP) in the gastrocnemius muscle after stimulation of the sciatic nerve were monitored at P50 (week 8) and […] (week 18). Recordings were made on a 2-channel electromyography system (Keypoint portable; Medtronic, Skovlunde, Denmark), with the high-frequency filter set at 5 kHz and the low-frequency filter set at 2 Hz. Electric stimulation produces artifacts; to reduce them, rectangular monophase electric pulses with a pulse width of 0.04 ms were used. For CMAP measurements the stimulation electrode was placed on the nerve at distance of 1 cm from the recording electrode placed on the gastrocnemius muscle through percutaneous puncture in the distal third of the paw, ipsilaterally to the surgical procedure, with a coaxial needle. The data of CMAP amplitude were expressed in millivolts, the data of latency were expressed in milliseconds and the data of nerve conduction velocity were expressed in meters per second (m/s). The number of animals tested per time point and group was of n=4.

With `COc1cc(/C=C/c2ccc(O)cc2)cc(OC)c1` [PT, pterostilbene], the “survival of SOD1 mice” value in experiment [1] is on record as “did not improve survival”. The “motor functions of SOD1 mice” value in experiment [2] is reported as “but not PT alone improved motor functions”.
For `NC(=O)c1ccc[n+]([C@@H]2O[C@H](CO)[C@@H](O)[C@H]2O)c1` [NR, nicotinamide riboside], in experiment [3], the motor action potential result is listed as “preserving motor action potential”. Besides, in experiment [2], the “motor functions of SOD1 mice” value is recorded as “improved motor functions”.
For `Oc1ccc(C=Cc2cc(O)cc(O)c2)cc1` [Resveratrol, resveratrol, reference compound], in experiment [1], the “survival of SOD1 mice” value is listed as “showed no benefit”. Moreover, in experiment [2], the “motor functions of SOD1 mice” value is recorded as “showed no benefit”. Besides, the “statistical comparison with the same group without R (SOD1 vs SOD1+R; SOD1+NR vs SOD1+NR+R)” value in experiment [2] (Student's t-test) is on record as “did not show significant differences”.
